From PubChem BioAssay AID1996
Converted amounts (≈) assume the structure as drawn.

conditions: buffer; pH 7.4; 200.0 µM

Row | Structure (SMILES) | solubility kinetic
1 | O=Cc1cn(CC(=O)N2CCCCCC2)c2ccccc12 | > 42.7 µg/mL
2 | COc1cc(N=Cc2c(CO)cnc(C)c2O)cc(OC)c1OC | 49.2 µg/mL (≈ 148 µM)
3 | CCc1ccccc1NC(=S)N1CCN(c2ccccc2F)CC1 | 4.4 µg/mL (≈ 12.8 µM)
4 | O=C(Nc1ccc(F)cc1F)NC1CCCCCCC1 | 1.9 µg/mL (≈ 6.73 µM)
5 | CN(C)CCCNc1nc(-c2ccc(Cl)cc2)nc2ccccc12 | 41.7 µg/mL (≈ 122 µM)
6 | COc1ccccc1CC(=O)N1CCOCC1 | 34.6 µg/mL (≈ 147 µM)
7 | Cc1ccccc1NC(=O)C(=O)NCCCN1CCOCC1 | > 45.8 µg/mL
8 | CC(=O)Nc1csc2ccccc12 | > 28.7 µg/mL
9 | CCCCN(c1ccccc1)S(=O)(=O)c1cccc2cccnc12 | 9 µg/mL (≈ 26.4 µM)
10 | CN(C)S(=O)(=O)c1ccc(NC=C(C#N)C#N)cc1 | 26.3 µg/mL (≈ 95.2 µM)
11 | O=C(COC(=O)c1ccccc1Br)NCc1cccs1 | > 53.1 µg/mL
12 | Cc1ccc(C(=O)COC(=O)CCNS(=O)(=O)c2ccccc2F)cc1 | > 56.9 µg/mL
13 | COc1cccc(NC(=O)c2ccccc2Br)c1 | > 45.9 µg/mL
14 | O=c1c(Cc2ccc(Cl)cc2Cl)c(O)ccn1Cc1ccncc1 | > 54.2 µg/mL
15 | COC(=O)c1c(C)oc(C)c1S(=O)(=O)NCc1cccs1 | 43.4 µg/mL (≈ 132 µM)
16 | COCc1nc2ccccc2n1CCc1ccccc1 | > 40 µg/mL
17 | Cc1ncc(CN2CCC(CO)(CCOc3ccccc3)CC2)s1 | 48.2 µg/mL (≈ 139 µM)
18 | O=C(CC1NCCNC1=O)Nc1ccccc1 (configuration not stated) | > 35 µg/mL
19 | O=C(O)c1ccccc1NC(=O)C1C2CCC(O2)C1C(=O)O (configuration not stated) | > 45.8 µg/mL
20 | CS(=O)(=O)N1CCSC1c1ccc(Br)cc1 (configuration not stated) | 47.8 µg/mL (≈ 148 µM)
21 | NC(=O)C1CCN(C(=O)CC2(CC(=O)O)CCCC2)CC1 | > 44.5 µg/mL
22 | CCOc1ccccc1NC(=O)COC(=O)CN1C(=O)NC(C)(C)C1=O | > 54.5 µg/mL

Row | Structure (SMILES) | solubility kinetic
23 | Cc1ccc(OCC(=O)N2CCCCC2C)c([N+](=O)[O-])n1 (configuration not stated) | > 44 µg/mL
24 | COc1ccc(S(=O)(=O)N2CCCC2)c2ccccc12 | 0.9 µg/mL (≈ 3.09 µM)
25 | Cc1nc2c(ccc3nc(NC(=O)C4CC4)sc32)s1 | 2.8 µg/mL (≈ 9.68 µM)
26 | CCNC(=O)Nc1cc(OC)c(OC)cc1C(=O)O | > 40.2 µg/mL
27 | CC(C)(C)c1ccccc1NC(=O)NC1CCN(Cc2c(F)cccc2Cl)CC1 | 0.5 µg/mL (≈ 1.2 µM)
28 | O=C(/C=C/c1ccccc1)Nc1sc2c(c1C(=O)O)CCC2 | > 47 µg/mL
29 | O=C(CCc1nc2ccccc2s1)Nc1cccnc1 | 32.6 µg/mL (≈ 115 µM)
30 | COc1cc2c(cc1OC)C(c1ccccc1F)NCC2 (configuration not stated) | > 43.1 µg/mL
31 | O=C(COc1ccc(Br)cc1F)NC1CC1 | > 43.2 µg/mL
32 | CC(NS(=O)(=O)c1ccccc1)C1CC2CCC1C2 (configuration not stated) | 6 µg/mL (≈ 21.5 µM)
33 | CCOCCCNC(=O)C1CC(=O)N(CCc2ccccc2)C1 (configuration not stated) | 41.7 µg/mL (≈ 131 µM)
34 | Cc1ccc(N2C(=O)CC(=O)NC2=O)cc1Cl | > 37.9 µg/mL
35 | O=C(NCCCNC(=O)c1ccco1)c1ccc(F)cc1 | 42.7 µg/mL (≈ 147 µM)
36 | CC1CCCN(C2(O)C(=O)Nc3ccc([N+](=O)[O-])cc32)C1 (configuration not stated) | 16.6 µg/mL (≈ 57 µM)
37 | CNC(=O)COC(=O)/C=C/c1ccco1 | > 31.4 µg/mL
38 | CCNC(=O)COC(=O)c1[nH]c(C)c(C(=O)OC)c1C | > 42.3 µg/mL
39 | CN(C(=O)C(Cl)Cl)c1ccc(OC(=O)c2ccco2)cc1 | > 49.2 µg/mL
40 | COc1ccc(Cl)cc1C(=O)OCC(=O)Nc1sccc1C(N)=O | 6.6 µg/mL (≈ 17.9 µM)
41 | c1ccc(COc2ccccc2CNC2CCCC2)cc1 | 38.5 µg/mL (≈ 137 µM)
42 | CC(C)(C)C(=O)CSc1nc(N)cc(=O)[nH]1 | 33.1 µg/mL (≈ 137 µM)
43 | Cc1onc(-c2c(F)cccc2Cl)c1C(=O)OCC(=O)N1C(C)CCCC1C (configuration not stated) | 41.7 µg/mL (≈ 102 µM)
44 | CN1CCN(c2nc3ccccn3c(=O)c2C=O)CC1.Cl | 45 µg/mL

Row | Structure (SMILES) | solubility kinetic
45 | O=[N+]([O-])C1=CC=C2C(=NC3(CCCCC3)N2O)C1=NCCc1ccccc1 | 1.4 µg/mL (≈ 3.82 µM)
46 | COC(CNC(=O)CN1CCN(Cc2ccccc2F)C1=O)OC | > 50.9 µg/mL
47 | CCOC(=O)c1cc(S(=O)(=O)NC2CCCCC2)cn1C | 43.9 µg/mL (≈ 140 µM)
48 | CCOC(=O)c1ccc(S(=O)(=O)NCCNCc2ccccc2)cc1.Cl | > 59.8 µg/mL
49 | Cc1nc(SCC(=O)N2CCCC2=O)nc(C)c1C | > 41.9 µg/mL
50 | O=C1NC2(CCCCC2)N(C(=O)c2ccccc2)C2=C1CCCC2 | 8.1 µg/mL (≈ 25 µM)
51 | C/C(=N/NC(=O)C(C)n1nc(C)c([N+](=O)[O-])c1C)c1ccc(OCC(N)=O)cc1 (configuration not stated) | > 60.4 µg/mL
52 | O=C(NC1CCCCC1)c1cccc(OCc2ccccc2)c1 | 0.8 µg/mL (≈ 2.59 µM)
53 | CC1(C)Oc2ccc(C(=O)Nc3ccccc3)cc2N(CC#N)C1=O | > 50.3 µg/mL
54 | COc1ccc(-n2c(-c3ccccc3)c[n+]3c2CCC3)cc1.[Br-] | > 55.7 µg/mL
55 | CCOC(=O)c1c(C=O)c2ccccc2n1Cc1ccccc1F | < 0.7 µg/mL
56 | O=C(Nc1ccc2c(c1)CCC2)c1cc(F)cc(F)c1 | 3.7 µg/mL (≈ 13.5 µM)
57 | CC(=O)Nc1ccc(Oc2ccccc2)cc1 | 33.6 µg/mL (≈ 148 µM)
58 | O=C(O)c1ccc(Nc2ccc(F)c(F)c2)c([N+](=O)[O-])c1 | > 44.1 µg/mL
59 | CC1CCc2c(sc3[nH]c(=S)n(C)c(=O)c23)C1 (configuration not stated) | 4.2 µg/mL (≈ 15.8 µM)
60 | O=C(COc1ccc(-c2nnco2)cc1)N1CCOCC1 | > 43.4 µg/mL
61 | CC1CCN(CC(=O)Nc2ccc3c(c2)OCO3)CC1 | > 41.5 µg/mL
62 | COc1ccc(CC(=O)Nc2ccncc2Cl)cc1 | > 41.5 µg/mL
63 | O=C(Cc1ccc(F)cc1)NC(Cc1c[nH]c2ccccc12)C(=O)O (configuration not stated) | 46.6 µg/mL (≈ 137 µM)
64 | COC(=O)Cn1cc(C(=O)C(F)(F)F)c2ccccc21 | 13.2 µg/mL (≈ 46.3 µM)
65 | COc1ccccc1NC(=S)N1CCn2cccc2C1c1cccnc1 (configuration not stated) | 42.2 µg/mL (≈ 116 µM)
66 | COc1ccc(OCC(O)CNC(=O)Nc2cccc3ccccc23)cc1 (configuration not stated) | 4.3 µg/mL (≈ 11.7 µM)

Row | Structure (SMILES) | solubility kinetic
67 | CCCN1CNC(=S)N(c2ccccc2C)C1 | > 37.4 µg/mL
68 | C[C@H](NC(=O)c1ccco1)C(=O)NCc1cccs1 | > 41.7 µg/mL
69 | O=C(NC(O)C(=O)c1ccccc1)c1ccc(F)cc1 (configuration not stated) | 39.7 µg/mL (≈ 145 µM)
70 | COc1cccc(C(=O)N2CCCN(C)CC2)c1OC | 36.2 µg/mL (≈ 130 µM)
71 | NS(=O)(=O)c1ccc(NC(=O)CN2CCc3ccccc32)cc1 | 23.6 µg/mL (≈ 71.2 µM)
72 | CCN(C(=O)c1ccc(Br)o1)C1CCS(=O)(=O)C1 (configuration not stated) | > 50.4 µg/mL
73 | CC(C)(C)c1ccc(C(=O)n2cnc3ccccc32)cc1 | 34.1 µg/mL (≈ 123 µM)
74 | COCCCNC(=O)C1c2ccccc2Oc2ccccc21 | 15.2 µg/mL (≈ 51.1 µM)
75 | O=C(NCCCn1ccnc1)c1ccccc1Br | > 46.2 µg/mL
76 | COc1cccc(NC(=O)C2(S(=O)(=O)c3ccc(Cl)cc3)CC2)c1 | 33.1 µg/mL (≈ 90.5 µM)
77 | COc1ccc(CCNC(=O)CCc2ccccc2)cc1OC | > 47 µg/mL
78 | COc1ccccc1C(=O)N/C(=C\c1ccccc1)C(=O)NC(C)C(=O)O (configuration not stated) | 52.2 µg/mL (≈ 142 µM)
79 | CC(=O)N1N=C2C3CCN(CC3)C2C1c1ccc(F)cc1 (configuration not stated) | > 43.1 µg/mL
80 | COc1ccc(C(=O)N/N=C\c2ccoc2)cc1 | > 36.6 µg/mL
81 | NC(=O)c1ccc(NC(=O)COC(=O)CCC2CCCCC2)cc1 | 9.1 µg/mL (≈ 27.4 µM)
82 | Cc1c(C=O)c2ccccc2n1CCOc1ccccc1F | < 0.6 µg/mL
83 | O=C(NCCO)/C(=C\c1ccco1)NC(=O)c1ccco1 | 35 µg/mL (≈ 121 µM)
84 | COc1ccc(NC(=O)c2cc(S(=O)(=O)N3CCOCC3)ccc2C)cc1S(=O)(=O)N1CCOCC1 | > 80.9 µg/mL
85 | CN1CCN(C(=O)c2ccc(Oc3ccc([N+](=O)[O-])cc3)cc2)CC1 | > 51.2 µg/mL

Other lines, results leading:

Row | solubility kinetic | Structure (SMILES)
86 | 36.9 µg/mL (≈ 130 µM) | O=C(COc1ccccc1)Nc1ccc2[nH]c(=O)[nH]c2c1
87 | 11.7 µg/mL (≈ 36.1 µM) | CCN(C(=O)Cn1c(=O)oc2ccccc21)c1ccc(C)c(C)c1
88 | 34.3 µg/mL (≈ 144 µM) | Cc1cc2ncn(CS(C)(=O)=O)c2cc1C
89 | 1.1 µg/mL (≈ 3.17 µM) | COc1ccccc1/C=C/C(=O)OCC(=O)Nc1ccc(Cl)cn1
90 | 4.6 µg/mL (≈ 15.7 µM) | COc1ccc(S(=O)(=O)Nc2ccncc2)c(C)c1C
91 | 17 µg/mL (≈ 56.6 µM) | COC(=O)c1ccc(COc2ncnc3sccc23)cc1
92 | 15.7 µg/mL (≈ 63.7 µM) | Cc1cccc(CSc2[nH]c(=O)ncc2C)c1
93 | 18.9 µg/mL (≈ 62 µM) | CC(=O)c1c(C)[nH]c(C(=O)NCc2cccc(Cl)c2)c1C
94 | < 0.3 µg/mL | Cc1ccc(-c2nc3ccccc3nc2Cl)cc1
95 | 6.7 µg/mL (≈ 22.3 µM) | COC(=O)COc1c(Cl)cc(Cl)c2ccc(C)nc12
96 | 3.9 µg/mL (≈ 13.8 µM) | Cc1ccnc(Nc2nc(-c3ccc(O)cc3)cs2)c1
97 | 4 µg/mL (≈ 12.4 µM) | Cc1cc(Cl)ccc1OC(C)C(=O)OCC(=O)c1ccc[nH]1 (configuration not stated)
98 | 14.9 µg/mL (≈ 53 µM) | Cc1ccc(C)c(N2C(=O)C3C4C=CC(CC4)C3C2=O)c1 (configuration not stated)
99 | > 39.6 µg/mL | O=C(O)c1nc(NCc2ccccc2)ncc1Cl
100 | 14.7 µg/mL (≈ 39.5 µM) | Cc1ccc(CN(C)C(=O)c2ccccc2Sc2ccccc2C#N)cc1
101 | 0.3 µg/mL (≈ 1.01 µM) | Cc1cccc(/N=C2/NC(=O)C(Cc3ccccc3)S2)n1 (configuration not stated)
102 | 27.2 µg/mL (≈ 86.8 µM) | CCOc1cc(/C=N/OC(C)=O)ccc1OCc1ccccc1
103 | 38.8 µg/mL (≈ 146 µM) | CC(=O)Nc1ccc2c(c1)ncn2-c1ccc(C)cc1
104 | 2.7 µg/mL (≈ 9.14 µM) | Cc1ccc2c(c1)C(=O)C(=O)N2CCCOc1ccccc1

Row | solubility kinetic | Structure (SMILES)
105 | 27 µg/mL (≈ 88.4 µM) | CC(=O)Nc1ccc(/C=C/c2nc3ccccc3[nH]c2=O)cc1
106 | 7.4 µg/mL (≈ 30 µM) | Cc1ccccc1Sc1ccc([N+](=O)[O-])cn1
107 | 0.4 µg/mL (≈ 1.21 µM) | Cc1cccc(C)c1Nc1c(-c2ccccc2O)nc2ncccn12
108 | 14.3 µg/mL (≈ 30.5 µM) | Cc1ccc(NC(=O)CNc2cccc(Br)c2)cc1S(=O)(=O)N1CCOCC1
109 | 14.6 µg/mL (≈ 50.3 µM) | COc1ccc(CNC(=S)Nc2cccc(F)c2)cc1
110 | < 0.7 µg/mL | Cc1ccc(OCC(=O)Nc2ccc3oc(=O)ccc3c2)cc1C
111 | > 39.2 µg/mL | COc1ccccc1CNC(=O)c1ccc(C)s1
112 | > 39.1 µg/mL | O=C(Cc1ccccc1Cl)NCc1cccnc1
113 | 17 µg/mL (≈ 52.7 µM) | CC(Oc1cccnc1[N+](=O)[O-])C(=O)Nc1ccc(Cl)cn1 (configuration not stated)
114 | > 56.3 µg/mL | COc1ccc(CCN2CC(C(=O)Nc3nccs3)CC2=O)cc1OC (configuration not stated)
115 | 2.1 µg/mL (≈ 8.23 µM) | Cc1ccccc1NC(=O)COc1ccccc1C
116 | 37.9 µg/mL (≈ 130 µM) | O=C(NCc1ccc2c(c1)OCO2)c1cccnc1Cl
117 | > 38.7 µg/mL | COc1cccc(OC)c1C(=O)Nc1cccnc1
118 | < 0.3 µg/mL | COc1cccc(NC(=O)CSc2nc(C3CC3)nc3ccccc23)c1
119 | < 0.4 µg/mL | CCN(c1cccc(C)c1)S(=O)(=O)c1ccc(OC)c([N+](=O)[O-])c1
120 | 6 µg/mL (≈ 15.7 µM) | Cc1ccc(NS(=O)(=O)c2cccc(C(=O)Nc3cccnc3)c2)c(C)c1
121 | 0.9 µg/mL (≈ 2.49 µM) | CCc1ccc2[nH]c(C(=O)Nc3ccc(F)cc3Br)cc2c1
122 | < 0.6 µg/mL | O=C(NCCc1ccccc1)c1cc2ccccc2oc1=O
